Source: patent publication US10525139B2, “Folate-conjugated molecules for delivery of toxic small molecule inhibitors to cancer cells and methods of use” (priority 2014, dated 2020)
Entries after “also recorded” stand apart in the source; their conditions may differ.

Legend:
[1] = test system: murine NOTCH1 L1601P ΔPEST expressing leukemia lymphoblasts; assay: Ex vivo treatment of murine NOTCH1 L1601P ΔPEST leukemia lymphoblasts; type: cell-based, mouse
Description: Viability data is represented as percentage relative to vehicle treatment and errors bars denote mean±SD of 3 replicates. Statistical significance of treated vs. vehicle (DMSO) samples (***P≤0.01; ***P≤0.001) was determined by one-way ANOVA with Bonferroni's correction for multiple comparison testing. […] The immunoblot contains cell lysates stained with anti-ICN1 antibody (Val1744) after treatment with the 10 μM of JQ-FT for 24 hours in vitro. GAPDH was used as a loading control ICN1 loss was quantified and bar graph (panel e) corresponds to the results of the quantification of three independent experiments. Statistical significance of treated vs. vehicle (DMSO) samples (*P≤0.05) was determined by Student's t-test. Expression of indicated NOTCH1 target genes HesI (panel d) and Dtx1 (panel e) in murine NOTCH1 L1601P ΔPEST expressing leukemia lymphoblasts treated with 10 μM JQ-FT for 24 hours was determined by qRT-PCR. Error bars indicate the mean±SD of 3 replicates. Data were analyzed using the ΔΔCT method and plotted as a percentage relative to the control gene Gapdh. Statistical significance for treated vs. vehicle (DMSO) (*P≤0.05) was determined by Student's t-test. […] The spleen and the liver of all mice were examined; representative results for one control animal and one JQ-FT-treated animal are shown. Formalin-fixed, paraffin-embedded tissue sections were stained using the hematoxylin and eosin stain (H & E) method. […] Anti-leukemic activity of JQ-FT was assessed by measuring spleen weight upon 5 days of JQ-FT treatment (60 mg/kg I.P) or vehicle (65% D5W+30% PEG-400+5% Tween-80only). […] Statistical significance for treated vs. vehicle (*P≤0.05) was determined by non-parametric t-test (Mann-Whitney). […] Statistical significance for treated vs. vehicle (*P≤0.05) was determined by non-parametric t-test (Mann-Whitney). […] ICN1 loss was quantified and bar graph (j) corresponds to the results of the quantification. Statistical significance for treated vs. vehicle (*P≤0.05) was determined by Student's t-test. […]

NOTCH1 = NOTCH1 processing and activation by western blot (FL-N1, TM-N1, ICN1); type: cell-based, human; conditions: 24 h
Excerpt: We previously described that the SERCA inhibitors thapsigargin and cyclopiazonic acid impair NOTCH1 maturation leading to an accumulation of full-length, unprocessed polypeptides in the endoplasmic reticulum/Golgi subcellular compartment. An immediate consequence of SERCA inhibition is a decrement in NOTCH1 protein display on the surface of T-ALL cells. […] To further support the hypothesis that Thap-OH impairs mutant NOTCH1 maturation, we evaluated levels of full-length, transmembrane and activated NOTCH1 (ICN1) by WB. Lysates from T-ALL cell lines treated with 1 μM Thap-OH were immunoblotted with an antibody specific for the cytoplasmic portion of NOTCH1 that recognizes both unprocessed NOTCH1 (FL-N1) (˜270 kDa) and the furin-processed transmembrane subunit (TM-N1) (˜110 kDa).
Both Folate-Thap (JQ-FT) and Thap-OH were tested in T-ALL cell lines with 24 h treatment. […] Lysates were prepared after treatment with indicated doses of thapsigargin, JQ-FT or Thap-OH for 24 hr. The blot shown was stained with an antibody against the C-terminus of NOTCH1 that recognizes both the furin-processed NOTCH1 transmembrane subunit (TM) and the unprocessed NOTCH1 precursor (FL) (FIG. 2A). GAPDH was used as a loading control. Western blots were stained with antibodies specific for γ-secretase-cleaved NOTCH 1 ([…], Cell Signaling, Beverly, Mass., USA), or the C-terminus of NOTCH1 (SC-6014 (C-20) Santa Cruz Biotechnology, Santa Cruz, Calif., USA). Control stains were carried out with antibodies specific for GAPDH (137179, Santa Cruz Biotechnology). Blots were developed with anti-rabbit-HRP (NA9340V, Amersham, Pittsburgh, Pa., USA) or anti-mouse-HRP (NA9340V or NA9310V, Amersham). Staining was quantified using ImageQuant TI V 7.0 (GE Health Care, Piscataway, N.J., USA).

PDX T-ALL cells = assay: JQ-FT treatment of patient-derived xenograft (PDX) T-ALL cells in vitro; type: cell-based, human
Description: Errors bars denote mean±SD of 4 replicates. […] The blot was stained with an antibody against the C-terminus of NOTCH1 that recognizes both the furin-processed NOTCH1 transmembrane subunit (TM) and the unprocessed NOTCH1 precursor (FL). The immunoblot was also stained with anti-ICN1 antibody. GAPDH was used as a loading control. […] Error bars indicate the mean±SD of 4 replicates. Data were analyzed using the ΔΔCT method and plotted as a percentage relative to the control gene RPL13A. Statistical significance among groups for treated vs. vehicle (DMSO) samples (***P≤0.0001) was determined by one-way ANOVA with Bonferroni's correction for multiple comparison testing. […] The blot was stained with an antibody against the C-terminus of NOTCH1 (N1) that recognizes both the furin-processed NOTCH1 transmembrane subunit (TM). GAPDH was used as a loading control. […] Cells were probed with an anti-NOTCH1 antibody (green) and nuclei were counterstained with DAPI. […] Error bars indicate the mean±SD of 4 replicates. Data were analyzed using the ΔΔCT method and plotted as a percentage relative to the control gene RPL13A. Statistical significance (***P≤0.001. ****P≤0.0001) for treated vs. vehicle (DMSO) was determined by one-way ANOVA with Bonferroni's correction for multiple comparison testing.
To assess the translational significance of these findings, we studied patient-derived xenografts (PDX) from T-ALL patients at the Dana-Farber Cancer Institute.

[2] = NOTCH1-mutated PDX cells, 24 hours

C/C=C(/C)C(=O)O[C@H]1C(C)=C2C([C@@H]1OC(=O)CCCCCCC)[C@@](C)(OC(C)=O)C[C@H](OC(=O)CC[C@H](NC(=O)c1ccc(NCc3cnc4nc(N)[nH]c(=O)c4n3)cc1)C(=O)O)[C@@]1(O)[C@H]2OC(=O)[C@@]1(C)O (some centres unmarked) [JQ-FT]
ICN1 expression in murine leukemia cells ([1]; 10 μM JQ-FT, 24 hours): diminished
transcription of NOTCH1 targets Hes1 and Dtx1 ([1]; 10 μM JQ-FT, 24 hours): diminished
proliferation of murine leukemia cells ([1]; ex vivo treatment with JQ-FT): diminished the proliferation
furin-processed transmembrane NOTCH1 subunit (TM-N1) level (NOTCH1; T-ALL cell lines with HD mutations, Thap-OH at 1 μM): loss of trans-membrane NOTCH; also recorded: decrement of transmembrane NOTCH1
ICN1 level (NOTCH1; T-ALL cell lines): Loss of ICN1
unprocessed full-length NOTCH1 (FL-N1) level (NOTCH1; T-ALL cell lines): accumulation of full length NOTCH; also recorded: accumulation of full length NOTCH1
ICN1 in NOTCH1-mutated PDX cells (PDX T-ALL cells; [2]): depletion of detectable ICN1
transmembrane NOTCH1 in NOTCH1-mutated PDX cells (PDX T-ALL cells; [2]): loss of transmembrane NOTCH1
expression of NOTCH1 target genes DTX and MYC in NOTCH1 mutant PDX samples (PDX T-ALL cells; NOTCH1 mutant samples, 24 hours): decreased
NOTCH1 processing in WT NOTCH1 PDX cells (PDX T-ALL cells; PDX T-ALL cells possessing WT NOTCH1): no effect was observed
NOTCH1 target gene transcription in WT PDX samples (PDX T-ALL cells; WT PDX samples, 24 hours): no transcriptional changes were observed
